Test results as given in US9745310B2 (SK BIOPHARMACEUTICALS CO., LTD., priority 2015, dated 2017).

target: human mGluR5 receptor (Homo sapiens (Human), UniProt P41594); assay: Calcium influx assay based on fluorescence (mGluR5 PAM activity); details: human mGluR5 receptor-overexpressed HEK293 cell line; L-glutamate EC20; Fluo-4, FLIPR
Method in brief: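 HEK293 cells overexpressing human mGluR5, loaded 1 h with Fluo-4 at 37° C. Compounds (10 μM to 10 nM final, 0.1–0.2% DMSO) added with an EC20 concentration of L-glutamate, and Ca2+ response read by FLIPR at room temperature. Activity scaled as 0% for EC20 glutamate alone and 100% for glutamate maximum.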

human mGluR5 receptor, sequence (P41594 21-1212): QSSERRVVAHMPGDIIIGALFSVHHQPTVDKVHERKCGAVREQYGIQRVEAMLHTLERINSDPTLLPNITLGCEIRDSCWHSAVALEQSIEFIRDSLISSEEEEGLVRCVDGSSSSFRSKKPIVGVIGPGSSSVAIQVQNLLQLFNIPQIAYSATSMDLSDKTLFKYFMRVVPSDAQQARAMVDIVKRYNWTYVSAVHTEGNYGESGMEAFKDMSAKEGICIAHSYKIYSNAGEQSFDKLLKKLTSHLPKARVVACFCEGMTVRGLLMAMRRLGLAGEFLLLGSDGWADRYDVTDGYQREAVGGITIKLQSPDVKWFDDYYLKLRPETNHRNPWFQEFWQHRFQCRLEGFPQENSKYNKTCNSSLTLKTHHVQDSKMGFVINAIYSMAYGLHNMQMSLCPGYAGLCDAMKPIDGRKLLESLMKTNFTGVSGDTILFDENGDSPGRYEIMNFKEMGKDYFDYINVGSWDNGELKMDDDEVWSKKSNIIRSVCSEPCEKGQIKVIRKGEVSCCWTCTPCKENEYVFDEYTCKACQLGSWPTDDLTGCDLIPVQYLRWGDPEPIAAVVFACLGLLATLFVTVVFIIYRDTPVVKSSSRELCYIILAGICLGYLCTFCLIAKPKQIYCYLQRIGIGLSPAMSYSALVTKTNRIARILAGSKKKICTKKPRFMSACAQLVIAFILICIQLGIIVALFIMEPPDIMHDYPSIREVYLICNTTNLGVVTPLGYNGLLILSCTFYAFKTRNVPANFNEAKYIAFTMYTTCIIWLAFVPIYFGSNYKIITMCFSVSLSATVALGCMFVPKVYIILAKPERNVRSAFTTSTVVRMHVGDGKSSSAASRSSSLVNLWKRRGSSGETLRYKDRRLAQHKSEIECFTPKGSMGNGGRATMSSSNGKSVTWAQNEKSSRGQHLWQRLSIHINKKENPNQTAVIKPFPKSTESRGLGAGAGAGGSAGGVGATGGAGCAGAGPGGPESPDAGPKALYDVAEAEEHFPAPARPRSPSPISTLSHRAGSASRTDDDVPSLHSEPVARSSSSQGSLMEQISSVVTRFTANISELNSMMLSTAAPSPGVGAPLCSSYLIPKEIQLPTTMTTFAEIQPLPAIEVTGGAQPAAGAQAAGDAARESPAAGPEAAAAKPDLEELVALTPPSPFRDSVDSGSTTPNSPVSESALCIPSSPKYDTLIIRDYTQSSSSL

| SMILES | EC50 |
| --- | --- |
| Fc1ccc(-c2cnc3nc(COc4ccccn4)cn3n2)c(C(F)(F)F)c1 [Example 186, 2-[4-fluoro-2-(trifluoromethyl)phenyl]-6-(2-pyridyloxymethyl)imidazo[1,2-b][1,2,4]triazine] | 100 to 500 nM |
| Cc1c(F)cccc1-c1cnc2nc(COc3ccccn3)cn2n1 [Example 187, 2-(3-fluoro-2-methyl-phenyl)-6-(2-pyridyloxymethyl)imidazo[1,2-b][1,2,4]triazine] | 100 to 500 nM |
| FC(F)(F)c1cc(Cl)ccc1-c1cnc2nc(COc3ccccn3)cn2n1 [Example 189, 2-[4-chloro-2-(trifluoromethyl)phenyl]-6-(2-pyridyloxymethyl)imidazo[1,2-b][1,2,4]triazine] | 500 to 1000 nM |
| Cc1cc(Cl)ccc1-c1cnc2nc(COc3ccccn3)cn2n1 [Example 190, 2-(4-chloro-2-methyl-phenyl)-6-(2-pyridyloxymethyl)imidazo[1,2-b][1,2,4]triazine] | 100 to 500 nM |
| Cc1cc(F)ccc1-c1cnc2nc(COc3cccc(F)n3)cn2n1 [Example 191] | 500 to 1000 nM |
| Cc1cc(F)ccc1-c1cnc2nc(COc3ccc(F)cn3)cn2n1 [Example 192, 2-(4-fluoro-2-methyl-phenyl)-6-[(5-fluoro-2-pyridyl)oxymethyl]imidazo[1,2-b][1,2,4]triazine] | 100 to 500 nM |
| NC(=O)OCc1cc(F)ccc1-c1cnc2nc(COc3ccc(F)cc3)cn2c1 [Example 193, [5-fluoro-2-[2-[(4-fluorophenoxy)methyl]imidazo[1,2-a]pyrimidin-6-yl]phenyl]methyl carbamate] | 100 to 500 nM |
| NC(=O)OCc1cc(F)ccc1-c1cnc2nc(COc3ccccc3)cn2c1 [Example 194, [5-fluoro-2-[2-(phenoxymethyl)imidazo[1,2-a]pyrimidin-6-yl]phenyl]methyl carbamate] | 100 to 500 nM |
| NC(=O)OCc1cc(F)ccc1-c1cnc2nc(COc3ccccn3)cn2c1 [Example 195, [5-fluoro-2-[2-(2-pyridyloxymethyl)imidazo[1,2-a]pyrimidin-6-yl]phenyl]methyl carbamate] | 100 to 500 nM |
| CC(=O)OCc1cc(F)ccc1-c1cnc2nc(COc3ccccn3)cn2c1 [Example 196, [5-fluoro-2-[2-(2-pyridyloxymethyl)imidazo[1,2-a]pyrimidin-6-yl]phenyl]methyl acetate] | 100 to 500 nM |
| Fc1ccc(OCc2cn3cc(-c4ccc(F)cc4CCl)cnc3n2)cc1 [Example 197, 6-[2-(chloromethyl)-4-fluoro-phenyl]-2-[(4-fluorophenoxy)methyl)imidazo[1,2-a]pyrimidine] | 100 to 500 nM |
| FCc1cc(F)ccc1-c1cnc2nc(COc3ccc(F)cc3)cn2c1 [Example 199, 6-[4-fluoro-2-(fluoromethyl)phenyl]-2-[(4-fluorophenoxy)methyl]imidazo[1,2-a]pyrimidine] | 100 to 500 nM |
